Source: US8193252B1, “Mesoprogestins (progesterone receptor modulators) for the treatment and prevention of benign hormone dependent gynecological disorders” (Bayer Pharma AG, priority 1999, dated 2012)
One block for each molecule: values may come before it.

Columns and labels:
endometriosis = settings: women treated with danazol; cited from earlier work
[1] = as described in DE 43 32 283 / DE 43 32 284; cited from earlier work
[2] = as described in DE 43 32 283 / DE 43 32 284; cited from earlier work; remark: listed apart in the source
cyclic guinea pigs = settings: cited from earlier work
[3] = biological target: T1, PR (progesterone receptor) (Homo sapiens, UniProt P06401); assay: Relative binding activity (RBA) at PR, progesterone = 100%; settings: by Kaufmann
T1 sequence (P06401 1-933): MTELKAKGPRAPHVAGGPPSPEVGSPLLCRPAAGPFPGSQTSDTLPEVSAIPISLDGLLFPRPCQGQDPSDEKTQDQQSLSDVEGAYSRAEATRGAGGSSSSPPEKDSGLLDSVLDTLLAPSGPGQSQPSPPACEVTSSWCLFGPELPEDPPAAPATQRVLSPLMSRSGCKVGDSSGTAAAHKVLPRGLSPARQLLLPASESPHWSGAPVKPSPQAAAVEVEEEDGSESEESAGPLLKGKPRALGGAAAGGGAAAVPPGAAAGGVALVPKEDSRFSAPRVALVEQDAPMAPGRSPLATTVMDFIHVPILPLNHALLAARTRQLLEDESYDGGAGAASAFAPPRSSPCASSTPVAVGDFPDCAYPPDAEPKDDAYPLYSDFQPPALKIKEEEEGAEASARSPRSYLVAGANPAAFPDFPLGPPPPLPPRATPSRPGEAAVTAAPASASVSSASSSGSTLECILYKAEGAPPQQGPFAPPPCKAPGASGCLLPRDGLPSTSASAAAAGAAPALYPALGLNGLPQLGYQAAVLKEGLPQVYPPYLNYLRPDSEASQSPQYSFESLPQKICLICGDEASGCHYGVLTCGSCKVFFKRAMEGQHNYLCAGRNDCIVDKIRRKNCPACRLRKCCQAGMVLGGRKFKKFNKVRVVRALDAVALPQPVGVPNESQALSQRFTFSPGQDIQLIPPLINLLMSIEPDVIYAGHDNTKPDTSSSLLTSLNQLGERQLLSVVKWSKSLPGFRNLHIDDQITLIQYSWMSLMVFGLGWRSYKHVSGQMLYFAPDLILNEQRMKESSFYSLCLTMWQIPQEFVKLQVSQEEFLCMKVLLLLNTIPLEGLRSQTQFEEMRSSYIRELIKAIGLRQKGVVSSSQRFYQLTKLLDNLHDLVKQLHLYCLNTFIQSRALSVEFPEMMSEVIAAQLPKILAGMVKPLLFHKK

GR = biological target: T2, GR (Homo sapiens, UniProt P04150); assay: Relative binding activity (RBA) at GR, dexamethasone = 100%; settings: by Kaufmann
T2 sequence (P04150 1-777): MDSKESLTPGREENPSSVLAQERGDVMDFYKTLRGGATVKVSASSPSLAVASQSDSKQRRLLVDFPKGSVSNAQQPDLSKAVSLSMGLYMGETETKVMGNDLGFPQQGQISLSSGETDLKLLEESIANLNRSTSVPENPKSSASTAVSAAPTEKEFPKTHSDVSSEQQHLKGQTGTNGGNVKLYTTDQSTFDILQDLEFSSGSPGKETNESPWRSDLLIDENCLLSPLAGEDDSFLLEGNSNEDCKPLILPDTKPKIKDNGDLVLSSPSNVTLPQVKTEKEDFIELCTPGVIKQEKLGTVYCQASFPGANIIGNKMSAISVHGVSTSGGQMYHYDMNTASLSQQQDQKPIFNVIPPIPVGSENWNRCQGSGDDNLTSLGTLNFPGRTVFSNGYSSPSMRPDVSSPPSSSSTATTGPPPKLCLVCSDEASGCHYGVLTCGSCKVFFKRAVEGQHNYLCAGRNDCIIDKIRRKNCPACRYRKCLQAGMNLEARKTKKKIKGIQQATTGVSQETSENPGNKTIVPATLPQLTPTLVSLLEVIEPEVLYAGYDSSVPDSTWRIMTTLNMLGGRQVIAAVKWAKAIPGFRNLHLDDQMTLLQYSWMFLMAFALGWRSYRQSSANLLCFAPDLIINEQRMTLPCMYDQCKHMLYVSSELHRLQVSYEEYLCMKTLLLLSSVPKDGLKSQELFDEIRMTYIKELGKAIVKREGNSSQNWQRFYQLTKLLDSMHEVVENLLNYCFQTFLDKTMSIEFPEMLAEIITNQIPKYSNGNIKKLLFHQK

pregnant rats = assay: Abortifacient activity in pregnant rats; format: in vivo, rat; settings: s.c.; treatment days 5-7 of pregnancy, autopsy day 9; * SAS, probit procedure
Source text: (§1) The guinea pig is considered as relevant model of human gestation and parturition (Elger W, Fähnrich M, Beier S, Quing S S, Chwalisz K (1987). Endometrial and myometrial effects of progesterone antagonists in pregnant guinea pigs. Am J Obstet Gynecol 157: 1065-1074; Elger W, Neef G, Beier S, Fähnrich M, Gründel M, Heermann J, Malmendier A, Laurent D, Puri C P, Singh M M, Hasan S H, Becker H (1992). Evaluation of antifertility activities of antigestagens in animal model. In: Puri C P and Van Look P F A (eds), Current Concepts in Fertility Regulation and Reproduction. Wiley Eastern Limited, New Delhi, pp. 303-328; Elger W, Faehnrich M, Beier S, Qing S S, Chwalisz K (1986). Mechanism of action of progesterone antagonists in pregnant guinea pigs. Contraception 6: 47-62; Elger W, Chwalisz K, Faehnrich M, Hasan S H, Laurent D, Beier S, Ottow E, Neef G, Garfield R E (1990). Studies on labor-conditioning and labor-inducing effects of antiprogesterones in animal model. In: Garfield R E (eds), Norwell, pp. 153-175.) The mechanism of abortion of antiprogestins in this species is the initiation of labor and finally the expulsion of the conceptus. Abortifacient effects in the rat during very early pregnancy reflect inhibitory effects on nidation rather than initiation of uterine contractions. Studies in the rat model lead to “overestimation” of the potential of antiprogestins to terminate pregnancy in humans. Conversely, in the guinea pig model, irrespective of the antiprogestin doses, there were high rates of ongoing pregnancies similar to the situation in humans (Elger et al., Current Concepts in Fertility Regulation and Reproduction cited above). Furthermore, in both humans and guinea pigs, there is a strong synergism between antiprogestins and prostaglandins with respect the induction of labor (see the articles cited above and Elger W, Beier S (1983). Prostaglandine and Antigestagene für den Schwangerschaftsabbruch (Prostaglandins and antigestagens for pregnancy termination). German Patent DE 3337450 12; Van Look P, Bygdeman M (1989). Antiprogestational steroids: a new dimension in human fertility regulation. Oxford reviews of reproductive medicine 11: 2-60).

pregnant guinea pigs = assay: Abortifacient / labor inducing activity in pregnant guinea pigs; format: in vivo, guinea pig; settings: for abortifacient activity ED50, guinea pig: s.c., treatment day 43-44 of pregnancy, autopsy day 50; for ranking of abortifacient activity: treated on days 43 and 44 of pregnancy, observed until day 50
Description: In the guinea pig model which allows a good prediction of the effects in humans with respect to the abortifacient activity (Elger W, Beier S., Chwalisz K, Fähnrich M, Hasan S H, Henderson D, Neef G, Rohde R (1986): Studies on the mechanism of action of progesterone antagonists. J Steroid Biochem 25: 835-845) the mesoprogestins J 867, J 912, J 956, J 1042 lead up to 100 mg/kg/day to a maximal abortion rate of 20%.
as §1
Pregnant guinea pigs were treated on days 43 and 44 of pregnancy and observed until day 50 of gestation. For the effects of various treatments see table 1 and FIG. 2. It is typical for this model that expulsions occur with a delay of several days after treatment. It can be seen that Mesoprogestins have a much reduced abortifacient activity compared to RU486. […] The differences with respect to abortifacient activity seem qualitative ones. It is not possible to overcome the low abortifacient activity of a Mesoprogestin by the use of a higher dose.
FIG. 2 is graphs showing data on the assessment on cumulative rate of abortion until day 50 in guinea pigs treated on days 43 and 44 of pregnancy.

menorrhagia = settings: women with ovulatory menorrhagia, acute administration during bleeding; cited from earlier work
[4] = biological target: T3, progesterone receptor (PR) (Oryctolagus cuniculus, UniProt P06186); assay: McPhail test, PR antagonistic (antiprogestagenic) activity in estradiol-primed juvenile rabbits in the presence of progesterone; format: in vivo; settings: 4 days s.c., in the presence of progesterone 1 mg/rabbit s.c.
T3 construct: effects of PR-modulators in the uterus of estrogen primed immature rabbits (McPhail test); from tissue; host or cells: uterus (endometrium) of estradiol-primed juvenile rabbits, in vivo
T3 sequence (P06186 1-930): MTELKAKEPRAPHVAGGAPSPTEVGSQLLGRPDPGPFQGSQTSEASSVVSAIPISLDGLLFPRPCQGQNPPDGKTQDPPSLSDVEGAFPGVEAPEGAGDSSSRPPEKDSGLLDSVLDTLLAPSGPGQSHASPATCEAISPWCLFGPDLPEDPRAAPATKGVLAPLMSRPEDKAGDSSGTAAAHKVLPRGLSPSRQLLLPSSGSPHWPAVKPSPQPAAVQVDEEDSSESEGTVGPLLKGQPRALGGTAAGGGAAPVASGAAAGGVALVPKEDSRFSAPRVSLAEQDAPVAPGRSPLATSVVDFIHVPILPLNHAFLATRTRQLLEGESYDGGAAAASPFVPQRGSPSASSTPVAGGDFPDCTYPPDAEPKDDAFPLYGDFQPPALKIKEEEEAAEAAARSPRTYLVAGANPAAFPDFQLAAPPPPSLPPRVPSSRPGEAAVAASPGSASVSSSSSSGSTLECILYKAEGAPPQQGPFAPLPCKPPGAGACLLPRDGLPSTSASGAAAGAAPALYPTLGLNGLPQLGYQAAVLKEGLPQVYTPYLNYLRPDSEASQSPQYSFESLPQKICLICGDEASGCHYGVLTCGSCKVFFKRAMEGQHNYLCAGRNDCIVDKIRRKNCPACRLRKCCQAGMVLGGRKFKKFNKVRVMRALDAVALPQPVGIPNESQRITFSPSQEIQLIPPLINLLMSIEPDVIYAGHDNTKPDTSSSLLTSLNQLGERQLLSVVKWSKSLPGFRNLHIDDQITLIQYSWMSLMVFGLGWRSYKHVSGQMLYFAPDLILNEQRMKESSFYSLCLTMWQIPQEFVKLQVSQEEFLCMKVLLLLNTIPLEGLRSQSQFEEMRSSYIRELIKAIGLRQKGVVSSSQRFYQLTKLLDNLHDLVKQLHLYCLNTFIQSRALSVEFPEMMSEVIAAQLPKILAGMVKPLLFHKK
Description: The capacity of mesoprogestins to antagonize progesterone function is also tested in the McPhail test using a progesterone dose which induces a McPhail score ranging between 3 and 4.
(§2) The PR antagonistic and agonistic properties of mesoprogestins were assessed in estrogen-primed rabbits in the McPhail test according to Selye (Textbook of Endocrinology, 1947, pp. 345-346).

[5] = biological target: T3, progesterone receptor (PR); assay: McPhail test, PR agonistic (progestagenic) activity in estradiol-primed juvenile rabbits; format: in vivo, rabbit; settings: 4 days s.c. treatment, absence of progesterone
Description: In the classical bioassay, the McPhail test, assessing progestagenic and antiprogestagenic effects in rabbits (Selye H., Textbook of Endocrinology, 1947, pp. 345-346), progesterone produces a maximum McPhail score of 4 (by definition).
as §2

SMILES: C#C[C@]1(O)CC[C@H]2[C@@H]3CCC4=Cc5oncc5C[C@]4(C)[C@H]3CC[C@@]21C [danazol]
- women with side effects (endometriosis): ≤ 85%

SMILES: COC[C@]1(OC)CC[C@H]2[C@@H]3CCC4=CC(=O)CCC4=C3[C@@H](c3ccc(/C=N/OC(C)=O)cc3)C[C@@]21C [J 914, 4-[17β-Methoxy-17α-(methoxymethyl)-3-oxoestra-4,9-dien-11β-yl]benzaldehyd-(1E)-(O-acetyl)oxim]
- antiprogestagenic activity [1]: strong
- antiglucocorticoid activity compared to RU 486 [2]: markedly reduced
- uterine weights (cyclic guinea pigs): reduced uterine weights

- RBA (%) PR [3]: 162%
- RBA (%) GR (GR): 16%
SMILES: COCC1(O)CCC2C3CCC4=CC(=O)CCC4=C3C(c3ccc(C=NO)cc3)CC21C (stereo not drawn) [J912, 4-[17β-Hydroxy-17α-(methoxymethyl)-3-oxoestra-4,9-dien-11β-yl]benzaldehyd-(1E)-oxim]
- abortifacient activity ED50, rat (pregnant rats): 0.36 mg/animal/day
- abortifacient activity ED50, guinea pig (pregnant guinea pigs): >100 mg/animal/day
- ranking of abortifacient activity (pregnant guinea pigs): RU486>J956>J867, J912>J1042

SMILES: NC[C@H]1CC[C@H](C(=O)O)CC1 [tranexamic acid]
- blood loss reduction (menorrhagia): 45%

SMILES: CCOC(=O)O/N=C/c1ccc([C@H]2C[C@@]3(C)[C@@H](CC[C@]3(COC)OC)[C@@H]3CCC4=CC(=O)CCC4=C32)cc1 [J 900, 4-[17β-Methoxy-17α-(methoxymethyl)-3-oxoestra-4,9-dien-11β-yl]benzaldehyd-(1E)-[O-(ethoxy)carbonyl]oxim]
- antiprogestagenic activity [1]: strong
- antiglucocorticoid activity compared to RU 486 [2]: markedly reduced
- uterine weights (cyclic guinea pigs): reduced uterine weights

- RBA (%) PR [3]: 22%
- RBA (%) GR (GR): 39%
SMILES: CN(C)c1ccc([C@H]2C[C@]3(C)[C@@H](CC[C@]3(O)CCCO)[C@@H]3CCC4=CC(=O)CCC4=C32)cc1 [Onapristone, reference compound]
- abortifacient activity ED50, rat (pregnant rats): 1.71* mg/animal/day
- abortifacient activity ED50, guinea pig (pregnant guinea pigs): ca 3 mg/animal/day

SMILES: CC#C[C@]1(O)CC[C@H]2[C@@H]3CCC4=CC(=O)CCC4=C3[C@@H](c3ccc(N(C)C)cc3)C[C@@]21C [RU 486, mifepristone, reference compound]
- RBA (%) GR (GR): 685%
- abortifacient activity ED50, rat (pregnant rats): 0.98* mg/animal/day
- abortifacient activity ED50, guinea pig (pregnant guinea pigs): 3.8 mg/animal/day
- ranking of abortifacient activity (pregnant guinea pigs): RU486>J956>J867, J912>J1042
- dose of first antiprogestagenic effect [4]: 0.3-1 mg/rabbit

- dose at which progestagenic effect / endometrial transformation was observed [5]: ≥ 0.1 mg/rabbit
- dose of maximum effect [5]: 1 mg/rabbit
- maximum effect, McPhail score [5]: ~4 McPhail score
SMILES: CC(=O)[C@H]1CC[C@H]2[C@@H]3CCC4=CC(=O)CC[C@]4(C)[C@H]3CC[C@]12C [Progesterone]
